Experimental data reported in patent US5968513A (priority 1996, dated 1999).

B1: partially purified native β-chain: crude preparation of native β-hCG (protein, UniProt P0DN86 21-165, looked up)
Choriogonadotropin subunit …: SKEPLRPRCRPINATLAVEKEGCPVCITVNTTICAGYCPTMTRVLQGVLPALPQVVCNYRDVRFESIRLPGCPRGVNPVVSYAVALSCQCALCRRSTTDCGGPKDHPLTCDDPRFQDSSSSKAPPPSLPSPSRLPGPSDTPILPQ
modifications: native, partially purified
notes: crude preparation of native β-hCG

What follows are molecules tested on Hematopoietic progenitor cells from normal bone marrow and cord blood (assay: Clonogenic (colony) assays of hematopoietic progenitor cells in methylcellulose (CFU-MIX, BFU-e, CFU-GM)). Details: hCG preparations 200 IU/ml; subunits and peptides 100 μg/ml; 10 days; aggregates of more than 50 cells counted.
Type: cell-based, human
Description: Hematopoietic progenitor cells (2×10^5 cell/ml) were isolated from normal bone marrow and cord blood and seeded in methylcellulose. […] Aggregates containing more than 50 cells after 10 days of culture were counted as colonies.

Molecule	growth of hematopoietic progenitors (pro-hematopoietic activity, colony numbers)
β-hCG peptide 38-57: β-hCG peptide of amino acids 38-57 (CPTMTRVLQGVLPALPQVVC; UniProt P0DN86 58-77, looked up, fragment)	little or no effects
β-hCG peptide 7-40: β-hCG peptide of amino acids 7-40 (PRCRPINATLAVEKEGCPVCITVNTTICAGYCPT; UniProt P0DN86 27-60, looked up, fragment)	little or no effects
α-hCG peptide 88-92: α-hCG peptide of amino acids 88-92 (YYHKS; UniProt P01215 112-116, looked up, fragment)	little or no effects
β-hCG peptide 57-93: β-hCG peptide of amino acids 57-93 (CNYRDVRFESIRLPGCPRGVNPVVSYAVALSCQCALC; UniProt P0DN86 77-113, looked up, fragment)	little or no effects
β-hCG peptide 100-110: β-hCG peptide of amino acids 100-110 (CGGPKDHPLTC; UniProt P0DN86 120-130, looked up, fragment)	little or no effects
β-hCG peptide 34-49: β-hCG peptide of amino acids 34-49 (CAGYCPTMTRVLQGVL; UniProt P0DN86 54-69, looked up, fragment)	little or no effects
β-hCG peptide 74-95: β-hCG peptide of amino acids 74-95	little or no effects
B1	directly promoted

Same assay, conditions: hCG preparations 200 IU/ml; subunits and peptides 100 μg/ml; 10 days; aggregates of more than 50 cells counted; listed as whole β-chain

Molecule	growth of hematopoietic progenitors (pro-hematopoietic activity, colony numbers)
B1	considerable pro-hematopoietic activity
